Measured values reported in PubChem BioAssay AID2060890 (Molecular Pharmacology Branch, DTP, NCI, 2025).

System: LG0703-F948-PDC complex spheroid viability
Assay: Anticancer human tumor LG0703-F948-PDC patient-derived lung adenocarcinoma cell line growth inhibition [RAS]
Settings: for IC50: curve of first compound; for viability, T/C: stronger effect = lower value
How it was run: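 Multi-cell-type spheroids: tumor cells plus HUVEC endothelial cells and mesenchymal stem cells. RAS-pathway inhibitors were combined with targeted agents, each dosed in half-log steps down from clinical Cmax, or from 10 microM when Cmax was unknown.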
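Note: spheroids exposed to agents for 7 days.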
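Throughout, for viability, T/C: 100% = DMSO vehicle wells.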

Question: `O=C(c1ccc(F)c(F)c1Nc1ccc(I)cc1F)N1CC(O)([C@@H]2CCCCN2)C1` + CCn1c(-c2cc(N3CCN(C)CC3)cnc2C(C)OC)c2c3cc(ccc31)-c1csc(n1)CC(NC(=O)C1CC1C)C(=O)N1CCCC(N1)C(=O)OCC(C)(C)C2 was tested. Which IC50 (second compound 0.000949 µM) did it give?
Answer: Its IC50 is 5.33 nM.

Question: What about the IC50 (second compound 0.003 µM) of the same compound?
Answer: The IC50 was less than 3.16 nM.

Question: And the IC50 (second compound 0.00949 µM)?
Answer: The IC50 was less than 3.16 nM.

Question: And the IC50 (second compound 0.03 µM)?
Answer: Its IC50 is less than 3.16 nM.

Question: What about the IC50 (second compound 0.0949 µM) of the same compound?
Answer: The IC50 was less than 3.16 nM.

Question: And the IC50 (second compound 0.3 µM)?
Answer: The IC50 was less than 3.16 nM.

Question: What about the viability, T/C (second compound 0.000949 µM, first compound 0.00316 µM) of the same compound?
Answer: Its viability, T/C is 59.2%.

Question: And the viability, T/C (second compound 0.000949 µM, first compound 0.01 µM)?
Answer: Its viability, T/C is 38.7%.

Question: And the viability, T/C (second compound 0.000949 µM, first compound 0.0316 µM)?
Answer: The viability, T/C was 28%.

Question: And the viability, T/C (second compound 0.000949 µM, first compound 0.1 µM)?
Answer: The viability, T/C was 19.2%.

Question: And the viability, T/C (second compound 0.000949 µM, first compound 0.316 µM)?
Answer: Its viability, T/C is 18.5%.

Question: What about the viability, T/C (second compound 0.000949 µM, first compound 1 µM) of the same compound?
Answer: The viability, T/C was 14.4%.

Question: What about the viability, T/C (second compound 0.003 µM, first compound 0.00316 µM) of the same compound?
Answer: The viability, T/C was 37.1%.

Question: And the viability, T/C (second compound 0.003 µM, first compound 0.01 µM)?
Answer: The viability, T/C was 22.3%.

Question: What about the viability, T/C (second compound 0.003 µM, first compound 0.0316 µM) of the same compound?
Answer: Its viability, T/C is 19.1%.

Question: And the viability, T/C (second compound 0.003 µM, first compound 0.1 µM)?
Answer: The viability, T/C was 10.5%.

Question: What about the viability, T/C (second compound 0.003 µM, first compound 0.316 µM) of the same compound?
Answer: The viability, T/C was 11.4%.

Question: What about the viability, T/C (second compound 0.003 µM, first compound 1 µM) of the same compound?
Answer: The viability, T/C was 8.17%.

Question: And the viability, T/C (second compound 0.00949 µM, first compound 0.00316 µM)?
Answer: Its viability, T/C is 17.4%.

Question: What about the viability, T/C (second compound 0.00949 µM, first compound 0.01 µM) of the same compound?
Answer: The viability, T/C was 15.4%.

Question: What about the viability, T/C (second compound 0.00949 µM, first compound 0.0316 µM) of the same compound?
Answer: The viability, T/C was 8.52%.

Question: What about the viability, T/C (second compound 0.00949 µM, first compound 0.1 µM) of the same compound?
Answer: Its viability, T/C is 6.3%.

Question: What about the viability, T/C (second compound 0.00949 µM, first compound 0.316 µM) of the same compound?
Answer: Its viability, T/C is 8.85%.

Question: And the viability, T/C (second compound 0.00949 µM, first compound 1 µM)?
Answer: Its viability, T/C is 8.14%.

Question: And the viability, T/C (second compound 0.03 µM, first compound 0.00316 µM)?
Answer: The viability, T/C was 10.5%.

Question: And the viability, T/C (second compound 0.03 µM, first compound 0.01 µM)?
Answer: The viability, T/C was 8.04%.

Question: What about the viability, T/C (second compound 0.03 µM, first compound 0.0316 µM) of the same compound?
Answer: The viability, T/C was 4.84%.

Question: What about the viability, T/C (second compound 0.03 µM, first compound 0.1 µM) of the same compound?
Answer: Its viability, T/C is 3%.

Question: And the viability, T/C (second compound 0.03 µM, first compound 0.316 µM)?
Answer: The viability, T/C was 5.82%.

Question: What about the viability, T/C (second compound 0.03 µM, first compound 1 µM) of the same compound?
Answer: Its viability, T/C is 4.58%.

Question: What about the viability, T/C (second compound 0.0949 µM, first compound 0.00316 µM) of the same compound?
Answer: The viability, T/C was 7.33%.

Question: What about the viability, T/C (second compound 0.0949 µM, first compound 0.01 µM) of the same compound?
Answer: The viability, T/C was 6.13%.

Question: What about the viability, T/C (second compound 0.0949 µM, first compound 0.0316 µM) of the same compound?
Answer: The viability, T/C was 3.55%.

Question: What about the viability, T/C (second compound 0.0949 µM, first compound 0.1 µM) of the same compound?
Answer: The viability, T/C was 3.1%.

Question: And the viability, T/C (second compound 0.0949 µM, first compound 0.316 µM)?
Answer: Its viability, T/C is 3.05%.

Question: And the viability, T/C (second compound 0.0949 µM, first compound 1 µM)?
Answer: The viability, T/C was 3.07%.

Question: What about the viability, T/C (second compound 0.3 µM, first compound 0.00316 µM) of the same compound?
Answer: Its viability, T/C is 5.13%.

Question: And the viability, T/C (second compound 0.3 µM, first compound 0.01 µM)?
Answer: The viability, T/C was 3.55%.

Question: And the viability, T/C (second compound 0.3 µM, first compound 0.0316 µM)?
Answer: Its viability, T/C is 2.8%.

Question: What about the viability, T/C (second compound 0.3 µM, first compound 0.1 µM) of the same compound?
Answer: The viability, T/C was 2.47%.

Question: What about the viability, T/C (second compound 0.3 µM, first compound 0.316 µM) of the same compound?
Answer: Its viability, T/C is 2.61%.

Question: And the viability, T/C (second compound 0.3 µM, first compound 1 µM)?
Answer: Its viability, T/C is 2.35%.
